Measurements as given in patent US20070231298A1, “Cytokine-expressing cancer immunotherapy combinations” (Cell Genesys, Inc., priority 2006, published 2007).

Columns and labels:
[1] = test system: IFN-gamma-secreting T-cells; assay: Activated T-cells, IFN-gamma-secreting T-cells in splenocytes, TKI started after immunization; format: in vivo, C57Bl6 mice; settings: 200 mg/kg daily oral gavage from Day 15, post immunotherapy (Days 3 and 17); spleens Day 31
Source text: (§1) Mice were sacrificed on Day 31 and the spleens were removed and evaluated for induction of a primary T-cell response by quantifying the number of IFN-gamma-secreting T-cells per 5×10^5 splenocytes when stimulated using an ovalbumin-specific peptide.
as §1

Pyk2 = target: T1, Pyk2 (Homo sapiens, UniProt Q14289); assay: Western blot of phosphorylated Pyk2 in stimulated Jurkat cells; format: cell-based; settings: anti-CD3 10 minutes, increasing concentrations 0, 12.5, 50 mcg/ml
T1 construct: Nutrients-starved human T cell clones (Jurkat cells) were stimulated; endogenous in cells; host or cells: Jurkat cells (human T cell line)
T1 sequence (Q14289 whole entry): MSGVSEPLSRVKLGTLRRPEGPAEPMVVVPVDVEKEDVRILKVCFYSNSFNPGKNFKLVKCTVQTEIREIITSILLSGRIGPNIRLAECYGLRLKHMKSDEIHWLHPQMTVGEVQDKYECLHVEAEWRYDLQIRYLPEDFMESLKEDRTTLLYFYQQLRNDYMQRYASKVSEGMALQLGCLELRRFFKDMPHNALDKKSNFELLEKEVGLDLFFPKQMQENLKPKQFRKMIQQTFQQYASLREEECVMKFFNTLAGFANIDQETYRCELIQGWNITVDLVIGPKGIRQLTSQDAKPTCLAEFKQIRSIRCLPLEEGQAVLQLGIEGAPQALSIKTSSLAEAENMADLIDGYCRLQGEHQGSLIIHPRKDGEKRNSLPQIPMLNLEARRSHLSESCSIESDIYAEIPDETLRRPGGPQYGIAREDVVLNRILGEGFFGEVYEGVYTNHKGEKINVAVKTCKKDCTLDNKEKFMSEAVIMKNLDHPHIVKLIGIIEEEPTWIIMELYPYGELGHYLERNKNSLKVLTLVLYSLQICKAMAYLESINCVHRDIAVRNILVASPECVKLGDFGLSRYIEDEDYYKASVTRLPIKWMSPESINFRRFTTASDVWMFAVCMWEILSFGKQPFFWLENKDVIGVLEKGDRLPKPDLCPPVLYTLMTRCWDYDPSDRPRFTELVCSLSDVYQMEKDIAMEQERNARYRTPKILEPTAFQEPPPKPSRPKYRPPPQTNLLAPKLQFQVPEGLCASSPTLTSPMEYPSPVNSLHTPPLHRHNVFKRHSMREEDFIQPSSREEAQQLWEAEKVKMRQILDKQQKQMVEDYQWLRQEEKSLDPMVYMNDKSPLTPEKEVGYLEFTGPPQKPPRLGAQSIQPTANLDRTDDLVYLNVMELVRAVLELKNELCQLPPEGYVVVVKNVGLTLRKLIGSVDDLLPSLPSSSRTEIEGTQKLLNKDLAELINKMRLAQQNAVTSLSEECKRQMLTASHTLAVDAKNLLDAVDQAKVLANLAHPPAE

[2] = test system: ovalbumin-specific CD8 T cells; assay: Expansion of adoptively transferred OT-1 transgenic T cells, tetramer/CD8 FACs; settings: 200 mg/kg daily oral gavage from Day-7 for 20 days plus GM.ova on day 3; Day 9; relative to immunotherapy alone
[3] = test system: IFN-gamma-secreting T-cells; assay: Naïve T-cell priming, IFN-gamma-secreting T-cells in splenocytes, TKI started before immunization; settings: 200 mg/kg daily oral gavage prior to and/or concurrently with cytokine-expressing cancer immunotherapy; ovalbumin-specific peptide stimulation
Zap-70 = target: T2, Zap-70 (Homo sapiens, UniProt P43403); settings: Jurkat cells, anti-CD3 10 minutes, increasing concentrations 0, 12.5, 50 mcg/ml
T2 sequence (P43403 1-619): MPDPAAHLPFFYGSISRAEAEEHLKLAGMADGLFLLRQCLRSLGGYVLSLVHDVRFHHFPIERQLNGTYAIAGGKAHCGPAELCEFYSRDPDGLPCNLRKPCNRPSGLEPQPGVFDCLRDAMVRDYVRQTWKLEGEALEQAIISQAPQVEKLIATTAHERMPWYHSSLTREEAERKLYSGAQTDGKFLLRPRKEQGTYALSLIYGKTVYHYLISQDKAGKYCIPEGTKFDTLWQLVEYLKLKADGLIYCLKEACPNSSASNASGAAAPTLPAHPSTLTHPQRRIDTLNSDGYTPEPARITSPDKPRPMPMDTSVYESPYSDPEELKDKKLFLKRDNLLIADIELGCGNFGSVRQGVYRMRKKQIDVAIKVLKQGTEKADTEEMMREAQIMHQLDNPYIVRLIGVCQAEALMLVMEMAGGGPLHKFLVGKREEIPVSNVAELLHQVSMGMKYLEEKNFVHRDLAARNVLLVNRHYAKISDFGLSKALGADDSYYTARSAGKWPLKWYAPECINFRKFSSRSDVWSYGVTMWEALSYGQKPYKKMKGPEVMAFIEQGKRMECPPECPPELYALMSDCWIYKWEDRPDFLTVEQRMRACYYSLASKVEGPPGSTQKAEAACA

SMILES	number of ova-antigen activated T-cells (IFN-gamma-secreting T-cells per 5×10^5 splenocytes) [1]	amount of phosphorylated Pyk2 (Pyk2)	absolute number of ovalbumin-specific CD8 T cells in spleen and lymph nodes [2]	number of primed naïve T-cells (IFN-gamma-secreting T-cells per 5×10^5 splenocytes) [3]	amount of phosphorylated Zap-70 (Zap-70)
C#Cc1cccc(Nc2ncnc3cc(OCCOC)c(OCCOC)cc23)c1 [erolotinib, N-(3-ethynylphenyl)-6,7-bis(2-methoxy)-4-quinazolinamine]	slight increase	decreased	increased	decrease	
COc1cc2ncnc(Nc3ccc(F)c(Cl)c3)c2cc1OCCCN1CCOCC1 [genfitinib]	slight increase	decreased	increased	decrease	decreased
